The values that follow come from patent publication US9782522B2, “Compositions and methods for treating and preventing neointimal stenosis” (Yale University, priority 2011, dated 2017).

SMILES strings stand for the structures.

One data set has as its system TEVG stenosis. Nature of the data set: Tissue-engineered vascular graft (TEVG) stenosis model. It counts as in vivo, mice. An excerpt: Scaffolds were constructed from a nonwoven polyglycolic acid (PGA) mesh (Concordia Fibers) and a co-polymer sealant solution of poly-L-lactide and -ε-caprolactone (P(CL/LA)) as previously described (Roh J D, et al. Biomaterials. 29(10):1454 (2008)). For scaffold seeding studies, bone marrow was collected from the femurs of syngeneic C57BL/6 mice. Following purification of the mononuclear cell component using Histopaque-1086 (Sigma) centrifugation, one million mononuclear cells were manually pipetted onto the scaffold. The seeded scaffold was incubated in RPMI 1640 Medium (Gibco) overnight prior to implantation as previously described (Roh J D, et al. Biomaterials. 29(10):1454 (2008)).
sFGFR1-IIIc adenovirus was previously described (Murakami M, et al. J Clin Invest. 118(10):3355 (2008)) at a dose of 5×10^10 viral particles per mouse 1 week prior to TEVG implantation by tail vein injection. Control mice were given equivalent volumes of sterile PBS. Serum level of sFGFR1-IIIc was measured by a Human IgG Subclass Profile kit (Invitrogen).
Mice treated with TGFβRI kinase inhibitor were treated with SB431542 hydrate (Sigma) in DMSO given by intraperitoneal injection twice a day from post-operative day 0 to post-operative day 14 at a dose of 10 mg/kg. Control mice were treated with equivalent volumes of sterile DMSO.
Explanted grafts were pressure fixed in 10% formalin overnight and then embedded in paraffin or glycolmethacrylate using previously published methods (Roh J D, et al. Proc Natl Acad Sci USA. 107(10):4669 (2010)). Sections were stained with H&E or Gomori Trichrome. Graft luminal diameters were measured using ImageJ software. Stenosis was defined as greater than 50% decrease in luminal diameter. Critical stenosis was defined as 80% narrowing of the luminal diameter. Graft occlusion was defined as 100% narrowing of the luminal diameter. For EM studies scaffolds were cut into 0.5 mm thick cross-sections and imaged on a […] scanning electron microscope (Hillsboro) as previously described (Roh J D, et al. Biomaterials. 29(10):1454 (2008)). TGFβ positive cell area was measured using ImageJ software. Two separate sections of each explant were counterstained with hematoxalin and imaged at 400× magnification. The number of nuclei was then counted in five regions of each section and averaged. LacZ/SMA colocalized cells were quantified in the same manner using double immunofluorescent staining imaged under 60× confocal magnification.

The subject of data set [1] is constitutively active ALK-4, ALK-5, and ALK-7. On the set-up: dose or concentration left out as unconfirmed. Particulars: transfected NIH 3T3 cells; cited from earlier work.
Data set [2] in a line: SB-431542 release from microparticles and scaffolds. It counts as physicochemical. The protocol: Total encapsulation was approximated as the amount of SB-431542 released over a 14-day period. Percent encapsulation efficiency was calculated as total encapsulation divided by maximum theoretical encapsulation. 5 mg of avidin-coated PLGA microparticles containing SB-431542, PGA-P(CL/LA) trimmed scaffolds and treated with pLLB and SB-431542-eluting microparticles as above, and SB-431542-eluting PGA-P(CL/LA) trimmed scaffolds were incubated with PBS in triplicate on a rotary shaker at 37° C. Samples were removed at specific time points and centrifuged at 13200 RPM for 10 minutes. 300 μl of supernatant was drawn and replaced with 300 μl PBS. Concentration of SB-431542 in supernatant diluted with 600 μl PBS was determined by spectrophotometry at 320 nm.

Setting [3] is: Tie2-CreXRosa26 mice, 10 mg/kg twice daily intraperitoneal for 2 weeks, vs DMSO.

On to `NC(=O)c1ccc(-c2nc(-c3ccc4c(c3)OCO4)c(-c3ccccn3)[nH]2)cc1` [SB431542, 4-[4-(1,3-Benzodioxol-5-yl)-5-(2-pyridinyl)-1H-imidazol-2-yl]-benzamide], for which, in the data set on TEVG stenosis (setting [3]), the TEVG luminal diameter result is given as “significantly increases” and the graft patency entry is reported as “significantly increases”. Besides, in the data set on TEVG stenosis (Tie2 lineage-tracing mice, drug treated), the “LacZ-positive smooth muscle cells in occluded grafts” value was “significant reduction”. For the same molecule, in the data set on TEVG stenosis (local drug delivery (drug in microparticles, drug in solvent), 2 weeks, unseeded grafts, mouse model), the Patency result is on record as “significantly increases”. In addition, the neotissue creation result in the data set on TEVG stenosis (local drug delivery, unseeded grafts, mouse model) is “enabled neotissue creation”. In addition, the “neotissue creation (CD31 positive endothelial layer lining SMA positive smooth muscle layer)” value in the data set with TEVG stenosis (systemic treatment, 10 mg/kg twice daily intraperitoneal) is “proper neotissue creation”. The “Phosphorylation of Smad2 by constitutively active ALK-4, ALK-5, and ALK-7” value in data set [1] is given as “completely abolished”. The “Release of the drug” value in data set [2] (PLGA microparticle system tethered to TEVG scaffold, full 2-week time course) is on record as “steady release”. Besides, the Release profile entry in data set [2] (inhibitor added to the solvent used to make the grafts) is listed as “favorable release profile”.
